Results on four substances are retold here after patent USRE35862E, “Delivery systems for pharmacological agents encapsulated with proteinoids” (Emisphere Technologies, Inc., priority 1994, dated 1998).

Read-outs that look alike come from different tables or passages of the source.

For series [1] the following is noted: insulin in solution, even when refrigerated; cited from earlier work.
Series [2] concerns blood glucose. The series can be described thus: Blood glucose in normal rats, Table 2 (Example 4). Format: in vivo, rat. The conditions noted are these: 1 ml/500 g by gavage. On the procedure: Doses of the resulting suspension, which contain no insulin within the microspheres, are referred to as "microspheres with external insulin". Dosages of the 2.5 mg/ml solution of porcine insulin alone are referred to as "raw insulin".
Twelve male white rats, each weighing approximately 500 g and havinng a normal blood glucose level, are arbitrarily assigned to two groups of three animals and a third group of six animals. The three animals of group A are administered the insulin filled microspheres by gavage and the three animals of group B are similarly administered the microspheres with external insulin. The six animals of group C similarly receive the raw insulin. All dosages are 1 ml/500 g of body weight and all animals are tested for blood glucose immediately before dosage and at intervals thereafter.

Series [3] has as its system blood glucose.
Procedure: Diabetes mellitis is induced in rats weighing approximately 300 g by giving each a 75 mg/kg body weight intravenous injection of streptozotocin. Ten rats which are observed to show consistently high blood glucose levels, polyuria and polydipsia and must be maintained on subcutaneous injections of porcine insulin are selected for this experiment.
The remaining six diabetic rats are arbitrarily assigned to three groups of two animals. […] The animals of the second and third groups receive subcutaneous injections of 0.25 mg (6.5 I.U.) and 0.125 mg (3.25 I.U.), respectively, of porcine insulin. Blood glucose measurements are made on all animals immediately before dosing and at intervals thereafter. The animal groups are crossed over twice at one week intervals, so that all of the animals receive each of the insulin treatments.
In series [4] the test system is blood glucose. The conditions noted are these: oral, far larger dosages per unit of body weight, unprotected, laboratory animals and humans; cited from earlier work.
In series [5] the test system is blood glucose. The series can be described thus: Blood glucose in normal rats, Table 1 (Example 2c). Format: in vivo, rat. The conditions noted are these: Group Four. The procedure:
The Group Two rats have between 1.5 and 1.7 ml of the suspension similarly administered. The rats of Group Three receive 1.0 ml of distilled water similarly administered. The rats of Group Four similarly receive 25.0 mg of porcine insulin in 1.0 ml of distilled water. Both before and during the experiment, all animals are permitted free access to water and their normal feed. Blood glucose levels are measured on samples drawn from the tail at specific intervals after treatment and group averages are recorded in Table 1 as milligrams of glucose per deciliter of blood (mg/dl).

Series [6] has as its system coagulation time. The conditions noted are these: oral, far larger doses per unit of body weight, unprotected, laboratory animals and humans; cited from earlier work.
The subject of series [7] is Time to coagulation (fibrin clot). The series can be described thus: Activated Partial Thromboplastin Time (APTT) test, Table 6 (Example 8b). Format: in vivo, rat. On the procedure:
Seven male white rats, each weighing approximately 600 g, are deprived of food for 12 hours before the start of the experiment. Rat #1 receives no treatment. Rat #2 receives an intravenous injection of 250 mg of heparin in one ml of distilled water. […] The effect of heparin is determined using the Activated Partial Thromboplastin Time (APTT) test. This test measures the time necessary for a sample of […] taken from the tail vein to form a fibrin clot.

Turning to insulin, the degradation in solution entry in series [1] is “degrade within a few days”.

Take porcine insulin: the “Blood Glucose” value came to 92.7 mg/dL in series [2] (0 hrs); 98.2 mg/dL in series [2] (1 hrs); 95.8 mg/dL in series [2] (2 hrs); 86.2 mg/dL in series [2] (3 hrs); 91 mg/dL in series [2] (4 hrs); 89.8 mg/dL in series [2] (6 hrs). The “Blood Glucose” value came out at 91 mg/dL in series [2] (8 hrs), 92 mg/dL in series [2] (12 hrs), 92 mg/dL in series [2] (24 hrs) and 95.5 mg/dL in series [2] (.5 hrs). The “effect on blood glucose levels” value in series [2] is reported as “no significant effect”. In addition, the “% Decrease from Baseline Blood Glucose” value is 5% in series [3] (0.5 hrs, 0.125 mg SC); 28% in series [3] (0.5 hrs, 0.25 mg SC); 17% in series [3] (1 hrs, 0.125 mg SC); 55% in series [3] (1 hrs, 0.25 mg SC); 27% in series [3] (1.5 hrs, 0.125 mg SC); 72% in series [3] (1.5 hrs, 0.25 mg SC). The “% Decrease from Baseline Blood Glucose” value was found to be 45% in series [3] (2 hrs, 0.125 mg SC); 77% in series [3] (2 hrs, 0.25 mg SC); 47% in series [3] (3 hrs, 0.125 mg SC); 84% in series [3] (3 hrs, 0.25 mg SC); 29% in series [3] (4 hrs, 0.125 mg SC); 79% in series [3] (4 hrs, 0.25 mg SC). In addition, the “% Decrease from Baseline Blood Glucose” value was 8% in series [3] (6 hrs, 0.125 mg SC); 34% in series [3] (6 hrs, 0.25 mg SC); -8% in series [3] (8 hrs, 0.125 mg SC); 4% in series [3] (8 hrs, 0.25 mg SC); -8% in series [3] (12 hrs, 0.125 mg SC); 3% in series [3] (12 hrs, 0.25 mg SC). The “% Decrease from Baseline Blood Glucose” value was -8% in series [3] (24 hrs, 0.125 mg SC); -7% in series [3] (24 hrs, 0.25 mg SC); -8% in series [3] (48 hrs, 0.125 mg SC); -5% in series [3] (48 hrs, 0.25 mg SC). Besides, the “reduction of blood glucose levels” value in series [4] is on record as “no detectable reduction of blood glucose levels”. Moreover, the “Ave. Blood Glucose” value in series [5] (30 min, 25.0 mg by gavage) amounted to 120 mg/dL; in series [5] (1 hr, 25.0 mg by gavage), 120 mg/dL; in series [5] (1.5 hr, 25.0 mg by gavage), 124 mg/dL; in series [5] (2 hr, 25.0 mg by gavage), 120 mg/dL; in series [5] (3 hr, 25.0 mg by gavage), 116 mg/dL; in series [5] (4 hr, 25.0 mg by gavage), 111 mg/dL. Further, the “Ave. Blood Glucose” value was determined as 123 mg/dL in series [5] (6 hr, 25.0 mg by gavage) and 113 mg/dL in series [5] (Predose, 25.0 mg in 1.0 ml water by gavage).

Regarding bovine insulin, the “reduction of blood glucose levels” value in series [4] is on record as “no detectable reduction of blood glucose levels”.

Consider heparin, for which the “increase in coagulation time” value in series [6] is “no detectable increase in coagulation time”. Besides, the “Time to Coagulation in the APTT Test” value was 54 s in series [7] (1 hr, IV 250 mg); more than 300 s in series [7] (2 hrs, IV 250 mg); 25 s in series [7] (Predose, IV group, 250 mg).
